How the values were obtained:
mGluR5 = target: T1, mGluR5 (Rattus norvegicus, UniProt P31424); assay: mGluR5 binding assay ([3H]-MPEP radioligand competition); details: competition with 3 nM [3H]-MPEP, rat brain cortical membranes, 1 h at 4 °C; mean of at least three independent experiments in duplicate
T1 construct: tissue Charles River Laboratories; host or cells: rat brain cortex membranes (Sprague-Dawley)
Summary of the method: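 Rat cortical membranes (50 μg) were incubated 1 h at 4 °C with 3 nM [3H]-MPEP and compound (0.003 nM-30 μM, 8 points) in HEPES buffer pH 7.4 with Mg2+, Ca2+ and NaCl. 30 μM MPEP defined non-specific binding, and bound label was counted after filtration. IC50 came from non-linear regression, as the mean of ≥3 experiments run in duplicate.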

T1 sequence (P31424 21-1203): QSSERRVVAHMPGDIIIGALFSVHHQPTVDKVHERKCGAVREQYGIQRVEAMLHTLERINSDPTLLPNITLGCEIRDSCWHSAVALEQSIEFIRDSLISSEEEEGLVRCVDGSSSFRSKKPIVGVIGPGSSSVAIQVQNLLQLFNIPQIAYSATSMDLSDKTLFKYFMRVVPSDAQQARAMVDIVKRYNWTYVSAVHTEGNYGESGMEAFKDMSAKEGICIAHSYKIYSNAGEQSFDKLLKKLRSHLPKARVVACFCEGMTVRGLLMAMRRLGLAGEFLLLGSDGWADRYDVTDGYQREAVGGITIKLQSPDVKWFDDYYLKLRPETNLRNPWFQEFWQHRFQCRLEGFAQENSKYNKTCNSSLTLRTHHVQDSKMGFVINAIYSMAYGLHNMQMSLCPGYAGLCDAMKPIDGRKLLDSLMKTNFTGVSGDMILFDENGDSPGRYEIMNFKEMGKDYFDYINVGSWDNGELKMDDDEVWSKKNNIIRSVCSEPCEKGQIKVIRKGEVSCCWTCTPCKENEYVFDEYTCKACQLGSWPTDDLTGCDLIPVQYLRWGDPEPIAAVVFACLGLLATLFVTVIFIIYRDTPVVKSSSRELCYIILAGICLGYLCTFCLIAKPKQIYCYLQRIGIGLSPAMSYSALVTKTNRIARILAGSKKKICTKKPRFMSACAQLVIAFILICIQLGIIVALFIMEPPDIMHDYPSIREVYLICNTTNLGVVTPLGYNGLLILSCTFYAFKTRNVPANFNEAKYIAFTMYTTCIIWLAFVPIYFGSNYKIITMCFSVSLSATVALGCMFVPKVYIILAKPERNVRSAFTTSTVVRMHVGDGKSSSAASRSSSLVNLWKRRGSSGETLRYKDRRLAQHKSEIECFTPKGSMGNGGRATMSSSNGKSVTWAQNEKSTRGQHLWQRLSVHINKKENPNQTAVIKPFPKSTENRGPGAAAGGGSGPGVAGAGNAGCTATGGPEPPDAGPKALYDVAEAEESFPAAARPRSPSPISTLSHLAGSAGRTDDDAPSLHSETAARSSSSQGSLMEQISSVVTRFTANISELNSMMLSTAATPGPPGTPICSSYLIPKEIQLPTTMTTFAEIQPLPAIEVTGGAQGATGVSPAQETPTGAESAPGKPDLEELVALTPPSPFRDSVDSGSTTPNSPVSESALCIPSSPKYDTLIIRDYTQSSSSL

Row | IC50 (mGluR5) [µM] | melting point | Structure (SMILES)
1 | < 0.05 | 70.2 to 74.3 °C | FCc1cccc(C#CCCc2ccc3ccccc3n2)n1 [Example 126, 2-(4-(6-(Fluoromethyl)pyridin-2-yl)but-3-ynyl)quinoline]
2 | < 0.05 | 136 °C (dec.) | FCc1cccc(C#CCCc2cnc3ccccc3n2)n1 [Example 129, 2-(4-(6-(Fluoromethyl)pyridin-2-yl)but-3-ynyl)quinoxaline]
3 | < 0.05 | 128 to 130 °C | Cl.FCc1cccc(C#CCCn2nc3cc(F)cc(F)c3n2)n1 [Example 131, 4,6-Difluoro-2-(4-(6-(fluoromethyl)pyridin-2-yl)but-3-ynyl)-2H-benzo[d][1,2,3]triazole hydrochloride]
4 | < 0.05 | 157 to 159 °C | Cl.FCc1cccc(C#CCCn2nc3ccc(F)c(F)c3n2)n1 [Example 132, 4,5-Difluoro-2-(4-(6-(fluoromethyl)pyridin-2-yl)but-3-ynyl)-2H-benzo[d][1,2,3]triazole hydrochloride]
5 | < 10 | 101.8 to 102.9 °C | FC(F)c1cccc(C#CCCn2nc3ccccc3n2)n1 [Example 134, 2-(4-(6-(Difluoromethyl)pyridin-2-yl)but-3-ynyl)-2H-benzo[d][1,2,3]triazole]
6 | < 10 | 131 to 132 °C | Fc1cc2nn(CCC#Cc3ccccn3)nc2cc1F [Example 153, 5,6-Difluoro-2-(4-(pyridin-2-yl)but-3-ynyl)-2H-benzo[d][1,2,3]triazole]
7 | < 10 | 104 to 105 °C | FCc1cccc(C#CCCn2nc3cc(F)c(F)cc3n2)n1 [Example 154, 5,6-Difluoro-2-(4-(6-(fluoromethyl)pyridin-2-yl)but-3-ynyl)-2H-benzo[d][1,2,3]triazole]
8 | < 0.5 | 150 to 154 °C | CNc1cccc(C#CCCn2nc3ccccc3n2)n1 [Example 167, 6-(4-(2H-Benzo[d][1,2,3]triazol-2-yl)but-1-ynyl)-N-methylpyridin-2-amine]
9 | < 10 | 93 to 94 °C | CC(=O)Nc1cccc(C#CCCn2nc3ccccc3n2)n1 [Example 169, N-(6-(4-(2H-Benzo[d][1,2,3]triazol-2-yl)but-1-ynyl)pyridin-2-yl)acetamide]
10 | < 10 | 73 to 78 °C | CCNc1cccc(C#CCCn2nc3ccccc3n2)n1 [Example 170, 6-(4-(2H-Benzo[d][1,2,3]triazol-2-yl)but-1-ynyl)-N-ethylpyridin-2-amine]
11 | < 0.5 | 95.3 to 96.3 °C | Cn1c(CCC#Cc2cccc(CF)n2)nc2ccccc21 [Example 190, 2-(4-(6-(Fluoromethyl)pyridin-2-yl)but-3-ynyl)-1-methyl-1H-benzo[d]imidazole]
12 | < 10 | 96 to 98 °C | Cc1nc(C#CCCn2nc3ccccc3n2)sc1C [Example 222, 2-(4-(4,5-Dimethylthiazol-2-yl)but-3-ynyl)-2H-benzo[d][1,2,3]triazole]
13 | < 0.05 | 74 to 76 °C | FCc1cccc(C#CCCc2nc3ccccc3s2)n1 [Example 241, 2-(4-(6-(Fluoromethyl)pyridin-2-yl)but-3-ynyl)benzo[d]thiazole]
14 | < 10 | 83.5 to 84.5 °C | Fc1ccc(-c2cnn(CCC#Cc3ccccn3)n2)cc1 [Example 249, 2-(4-(4-(4-Fluorophenyl)-2H-1,2,3-triazol-2-yl)but-1-ynyl)pyridine]

The remaining lines, values behind:

Row | Structure (SMILES) | IC50 (mGluR5) [µM] | melting point
15 | Cc1ccc(F)cc1-c1noc(CCC#Cc2ccccn2)n1 [Example 59, 2-(4-(3-(5-Fluoro-2-methylphenyl)-1,2,4-oxadiazol-5-yl)but-1-ynyl)pyridine] | < 10 | 90 to 91 °C
16 | Cc1ccc(Cl)cc1-c1noc(CCC#Cc2ccccn2)n1 [Example 60, 2-(4-(3-(5-Chloro-2-methylphenyl)-1,2,4-oxadiazol-5-yl)but-1-ynyl)pyridine] | < 10 | 66 to 68 °C
17 | Fc1cc(F)c2oc(CCC#Cc3ccccn3)nc2c1 [Example 89, 5,7-Difluoro-2-(4-(pyridin-2-yl)but-3-ynyl)benzo[d]oxazole] | < 0.05 | 93.5 to 94 °C
18 | Fc1cccc2oc(CCC#Cc3ccccn3)nc12 [Example 90, 4-Fluoro-2-(4-(pyridin-2-yl)but-3-ynyl)benzo[d]oxazole] | < 0.05 | 89 to 89.5 °C
19 | N#Cc1cccc2nc(CCC#Cc3ccccn3)oc12 [Example 92, 2-(4-(Pyridin-2-yl)but-3-ynyl)benzo[d]oxazole-7-carbonitrile] | < 0.05 | 126 to 126.5 °C
20 | Fc1ccc(Cl)c2oc(CCC#Cc3ccccn3)nc12 [Example 93, 7-Chloro-4-fluoro-2-(4-(pyridin-2-yl)but-3-ynyl)benzo[d]oxazole] | < 0.05 | 102 to 103 °C
21 | O=c1n(CCC#Cc2cccc(CF)n2)nc2ccccn12 [Example 120, 2-(4-(6-(Fluoromethyl)pyridin-2-yl)but-3-ynyl)-[1,2,4]triazolo[4,3-a]pyridin-3(2H)-one] | < 10 | 106 to 107 °C
22 | FCc1cccc(C#CCCc2cnc3cc(F)c(F)cc3n2)n1 [Example 148, 6,7-Difluoro-2-(4-(6-(fluoromethyl)pyridin-2-yl)but-3-ynyl)quinoxaline] | < 10 | 134.9 to 138.5 °C
23 | Fc1ccc(-c2cc(CCC#Cc3ccccn3)on2)cc1 [Example 168, 2-(4-(3-(4-Fluorophenyl)isoxazol-5-yl)but-1-ynyl)pyridine] | < 10 | 83 to 84 °C
24 | Fc1ccc(-c2cn(CCC#Cc3ccccn3)nn2)cc1 [Example 179, 2-(4-(4-(4-Fluorophenyl)-1H-1,2,3-triazol-1-yl)but-1-ynyl)pyridine] | < 0.5 | 120 to 122 °C
25 | O=c1c2ccccc2ccn1CCC#Cc1ccccn1 [Example 183, 2-(4-(Pyridin-2-yl)but-3-ynyl)isoquinolin-1(2H)-one] | < 0.5 | 85 to 90 °C
26 | O=C(CCC#Cc1ccccn1)Nc1ccccc1F [Example 186, N-(2-Fluorophenyl)-5-(pyridin-2-yl)pent-4-ynamide] | < 10 | 82 to 84 °C
27 | O=C(CCC#Cc1ccccn1)Nc1cccc(F)c1 [Example 187, N-(3-Fluorophenyl)-5-(pyridin-2-yl)pent-4-ynamide] | < 10 | 110 to 114 °C
28 | Cc1cc(F)ccc1NC(=O)CCC#Cc1ccccn1 [Example 188, N-(4-Fluoro-2-methyl-phenyl)-5-(pyridin-2-yl)pent-4-ynamide] | < 10 | 110 to 114 °C
29 | Cn1c(CCC#Cc2cccc(CF)n2)nc2c(F)cc(F)cc21 [Example 193, 4,6-Difluoro-2-(4-(6-(fluoromethyl)pyridin-2-yl)but-3-ynyl)-1-methyl-1H-benzo[d]imidazole] | < 0.5 | 103 to 104 °C
30 | FCc1cccc(C#CCCc2cn3cc(F)ccc3n2)n1 [Example 223, 6-Fluoro-2-(4-(6-(fluoromethyl)pyridin-2-yl)but-3-ynyl)H-imidazo[1,2-a]pyridine] | < 0.5 | 140 to 141.8 °C
31 | FCc1nc(C#CCCc2cn3cc(F)ccc3n2)cs1 [Example 224, 6-Fluoro-2-(4-(2-(fluoromethyl)thiazol-4-yl)but-3-ynyl)-imidazo[1,2-a]pyridine] | < 0.05 | 82 to 84 °C
32 | FCc1cccc(C#CCCc2cn3cccc(OCc4ccccc4)c3n2)n1 [Example 226, 8-(Benzyloxy)-2-(4-(6-(fluoromethyl)pyridin-2-yl)but-3-ynyl)-imidazo[1,2-a]pyridine] | < 10 | 92 to 94 °C
33 | Fc1cc(F)c2nc(CCC#Cc3ccccn3)cn2c1 [Example 228, 6,8-Difluoro-2-(4-(pyridin-2-yl)but-3-ynyl)-imidazo[1,2-a]pyridine] | < 0.05 | 130 to 131 °C
34 | Fc1cccnc1C#CCCc1nc2ccccc2o1 [Example 230] | < 10 | 86 to 88 °C
35 | Cc1nc(C#CCCc2nc3ccccc3o2)c[nH]1 [Example 231, 2-(4-(2-Methyl-1H-imidazol-4-yl)but-3-ynyl)benzo[d]oxazole] | < 10 | 152 to 154 °C
36 | O=C(CCC#Cc1cccc(CF)n1)Nc1ccc(F)cc1 [Example 232, 5-(6-(Fluoromethyl)pyridin-2-yl)-N-(4-fluorophenyl)pent-4-ynamide] | < 10 | 110 °C
37 | Cc1nc(C#CCCc2nc3ccccc3o2)cn1C [Example 233, 2-(4-(1,2-Dimethyl-1H-imidazol-4-yl)but-3-ynyl)benzo[d]oxazole] | < 10 | 117 to 119 °C
38 | O=C1c2ccccc2CN1CCC#Cc1ccccn1 [Example 234, 2-(4-(Pyridin-2-yl)but-3-ynyl)isoindolin-1-one] | < 10 | 94 to 98 °C
39 | O=C1c2ccccc2C(=O)N1CCCC#Cc1ccccn1 [Example 242, 2-(5-(Pyridin-2-yl)pent-4-ynyl)isoindoline-1,3-dione] | < 10 | 127 to 129 °C
40 | O=C(CCC#Cc1ccccn1)Nc1ccc(Cl)cc1 [Example 244, N-(4-Chlorophenyl)-5-(pyridin-2-yl)pent-4-ynamide] | < 10 | 110 to 111 °C
41 | O=C(CCC#Cc1ccccn1)Nc1cccc(Cl)c1 [Example 245, N-(3-Chlorophenyl)-5-(pyridin-2-yl)pent-4-ynamide] | < 10 | 167.8 to 168.8 °C
42 | O=C(CCC#Cc1ccccn1)Nc1ccc(F)cc1F [Example 246, N-(2,4-Difluorophenyl)-5-(pyridin-2-yl)pent-4-ynamide] | < 10 | 132 to 133.2 °C

— patent publication US8883826B2, “Alkynyl derivatives as modulators of metabotropic glutamate receptors” (Addex Pharma SA, priority 2004, dated 2014)
